Measurements taken from ChEMBL document CHEMBL1144283, “Truncated azinomycin analogues intercalate into DNA” (Bioorg Med Chem Lett, 2005).

Columns and labels:
[1] = Inhibitory concentration measured against the prostate cancer cell line DU145; IA:Inactive; type: functional, cell-based, Homo sapiens; conditions: cancer cell lines
[2] = Inhibitory concentration measured against the prostate cancer cell line DU145; type: functional, cell-based, Homo sapiens; conditions: cancer cell lines

| IC50 [1] | IC50 [2] | Structure (SMILES) |
| --- | --- | --- |
| Not Active | – | COc1cc(C(=O)NCCN2CCCC(Cl)C2)c2cccc(C)c2c1 (stereo not drawn) |
| – | 0.05 µM | COc1cc(C(=O)O[C@H](C(N)=O)[C@]2(C)CO2)c2cccc(C)c2c1 |
| Not Active | – | COc1cc(C(=O)NCCN2CCCC(O)C2)c2cccc(C)c2c1 (stereo not drawn) |
